Data taken from patent US8063039B2, “3-aminopyrrolidone derivatives” (Newron Pharmaceuticals S.p.A., priority 2003, dated 2011).
Where a name gives a salt, the structure may show the parent alone.

melting point: 140.5 to 143.5 °C
Structure (SMILES): O=C1NCC[C@@H]1NCc1ccc(OCc2cccc(F)c2)cc1 (as salt: sulfonic acid salt) [Example 1, (S)-3-[4-(3-Fluorobenzyloxy)-benzylamino]-pyrrolidin-2-one]
